According to ChEMBL document CHEMBL1201862, “PubChem BioAssay data set” (2004):
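1) Cells in 96-well plates. 2) Compound, 48 h, 5 concentrations. 3) Linear interpolation between surrounding doses. 4) Unreached endpoint = highest concentration. GI50 is the concentration that inhibits growth by half.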 The source made the active and inactive calls. No stated cut-off is given here; in the data, active = GI50 up to about 1.1 µM and inactive = higher.

What was measured:
Assay in all cases: NCI tumour cell line growth inhibition, 48 h
NCI-H460 = test system: NCI-H460
SW-620 = test system: SW-620
TK-10 = test system: TK-10
HCT-15 = test system: HCT-15
SK-OV-3 = test system: SK-OV-3
UACC-62 = test system: UACC-62
EKVX = test system: EKVX
HOP-62 = test system: HOP-62
SNB-19 = test system: SNB-19
U-251 = test system: U-251
NCI-H23 = test system: NCI-H23
M14 = test system: M14
A498 = test system: A498
K562 = test system: K562
COLO 205 = test system: COLO 205
OVCAR-3 = test system: OVCAR-3
MDA-MB-231 = test system: MDA-MB-231
PC-3 = test system: PC-3
MDA-MB-435 = test system: MDA-MB-435

Row | Structure (SMILES) | GI50 (NCI-H460) | GI50 (SW-620) | GI50 (TK-10) | GI50 (HCT-15) [µM] | GI50 (SK-OV-3) | GI50 (UACC-62) | GI50 (EKVX) | GI50 (HOP-62) | GI50 (SNB-19) | GI50 (U-251) | GI50 (NCI-H23) | GI50 (M14) | GI50 (A498) | GI50 (K562) | GI50 (COLO 205) | GI50 (OVCAR-3) | GI50 (MDA-MB-231) | GI50 (PC-3) | GI50 (MDA-MB-435)
1 | CC[C@H]1CNC(=O)CC1CC(=O)OC (stereo partly specified) | > 100 µM (inactive) | > 100 µM (inactive) | > 100 µM (inactive) | > 100 | > 100 µM (inactive) | > 100 µM (inactive) | > 100 µM (inactive) | > 100 µM (inactive) | > 100 µM (inactive) | > 100 µM (inactive) | > 100 µM (inactive) | > 100 µM (inactive) | > 100 µM (inactive) |  |  |  |  |  | 
2 | Cc1ccc(S(=O)(=O)N2CCCCC2CCO)cc1 (stereo unspecified) | > 100 µM (inactive) | > 100 µM (inactive) | > 100 µM (inactive) | > 100 | > 100 µM (inactive) | > 100 µM (inactive) | > 100 µM (inactive) | > 100 µM (inactive) | > 100 µM (inactive) | > 100 µM (inactive) | > 100 µM (inactive) | > 100 µM (inactive) | > 100 µM (inactive) | > 100 µM (inactive) | > 100 µM (inactive) | > 100 µM (inactive) |  |  | 
3 | CCn1c(=O)c2ccccc2n2c(=O)c3cc4ccccc4cc3nc12 | > 100 µM (inactive) | > 100 µM (inactive) | > 100 µM (inactive) | > 100 | 92.7 µM (inactive) | > 100 µM (inactive) | > 100 µM (inactive) | 96.8 µM (inactive) | 52.1 µM (inactive) | > 100 µM (inactive) | > 100 µM (inactive) | > 100 µM (inactive) | > 100 µM (inactive) | > 100 µM (inactive) | > 100 µM (inactive) | > 100 µM (inactive) |  |  | 
4 | CCC(Oc1ccc(OC)c2c1C(=O)CCC2)C(=O)O (stereo unspecified) | > 100 µM (inactive) | > 100 µM (inactive) | > 100 µM (inactive) | > 100 | > 100 µM (inactive) | > 100 µM (inactive) | > 100 µM (inactive) | > 100 µM (inactive) | > 100 µM (inactive) | > 100 µM (inactive) | > 100 µM (inactive) | > 100 µM (inactive) | > 100 µM (inactive) | > 100 µM (inactive) | > 100 µM (inactive) | > 100 µM (inactive) |  |  | 
5 | CC[C@]12C=CCN3CCC4(c5cc([C@@]6(C(=O)OC)CC7CN(CCc8c6[nH]c6ccccc86)C[C@@H]6CCC[C@H]76)c(OC)cc5N(C)C4[C@](O)(C(=O)OC)C1OC(C)=O)C32 (stereo partly specified) | 0.142 µM (active) | 0.122 µM (active) |  | 0.443 | 0.135 µM (active) | 0.0728 µM (active) | 0.968 µM (active) | 0.106 µM (active) | 0.121 µM (active) | 0.106 µM (active) | 0.116 µM (active) | 0.157 µM (active) | 0.251 µM (active) | 0.0513 µM (active) | 0.083 µM (active) | 0.061 µM (active) | 0.0762 µM (active) | 0.0336 µM (active) | 0.00318 µM (active)
6 | O=S1(=O)COc2ccccc2-c2ncncc21 | > 100 µM (inactive) | > 100 µM (inactive) | > 100 µM (inactive) | > 100 | > 100 µM (inactive) | > 100 µM (inactive) | > 100 µM (inactive) | > 100 µM (inactive) | > 100 µM (inactive) | > 100 µM (inactive) | > 100 µM (inactive) | > 100 µM (inactive) | > 100 µM (inactive) | > 100 µM (inactive) | > 100 µM (inactive) | > 100 µM (inactive) |  |  | 
7 | CCOC(=O)CCC(NC(=O)c1ccc(CNc2nc3ccccc3nc2C(=O)OCC)cc1)C(=O)OCC (stereo unspecified) |  | > 100 µM (inactive) | > 100 µM (inactive) | > 100 | > 100 µM (inactive) | > 100 µM (inactive) | > 100 µM (inactive) | > 100 µM (inactive) | 23.7 µM (inactive) | 21.8 µM (inactive) | > 100 µM (inactive) | > 100 µM (inactive) | > 100 µM (inactive) | > 100 µM (inactive) | > 100 µM (inactive) | 78.7 µM (inactive) | 24.9 µM (inactive) | > 100 µM (inactive) | 3.01 µM (inactive)
8 | O=c1[nH]c(Nc2nc3ccccc3[nH]2)nc(O)c1-c1ccccc1 | > 100 µM (inactive) | > 100 µM (inactive) | > 100 µM (inactive) | > 100 | > 100 µM (inactive) | > 100 µM (inactive) |  | > 100 µM (inactive) | > 100 µM (inactive) | 82.2 µM (inactive) | > 100 µM (inactive) | > 100 µM (inactive) | > 100 µM (inactive) | > 100 µM (inactive) | > 100 µM (inactive) | > 100 µM (inactive) | > 100 µM (inactive) | > 100 µM (inactive) | > 100 µM (inactive)
